Experimental data taken from patent publication US12692238B2, “Substituted pyridazinone herbicides” (FMC CORPORATION, priority 2020, dated 2026).

Experiments:
Assay type in all cases: in vivo
[1] = test system: barnyardgrass (Echinochloa crus-galli); experiment: Test A postemergence, barnyardgrass; settings: 10 days
Outline: (§1)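 Seeds sown in loam–sand blend, sprayed preemergence on soil; postemergence sprays on plants 2–10 cm tall at one- to two-leaf stage, chemicals in non-phytotoxic solvent with surfactant. Greenhouse 10 days, then visual injury vs untreated controls, scored 0 (no effect) to 100 (complete control).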

rice (Oryza sativa) = experiment: Test B flooded paddy test, rice; settings: 250 g ai/ha, Flood; visually evaluated after 10 to 14 days
Outline: (§2)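 In this test, pots holding 2-leaf plants were flooded to 3 cm and received compound directly in the water. They then stayed in the greenhouse for 10 to 14 days before a visual comparison with controls (0, no effect; 100, complete control).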

[2] = test system: galium (catchweed bedstraw, Galium aparine); experiment: Test A postemergence, galium; settings: 10 days
Outline: as §1

[3] = test system: ryegrass, Italian (Italian ryegrass, Lolium multiflorum); experiment: Test A postemergence, ryegrass, Italian; settings: 10 days
Outline: as §1

[4] = test system: foxtail, giant (giant foxtail, Setaria faberi); experiment: Test A preemergence, foxtail, giant; settings: 0 to 100 scale, 10 days
Outline: as §1

corn (Zea mays) = experiment: Test A postemergence, corn; settings: 10 days
Outline: as §1

[5] = test system: sedge, umbrella (small-flower umbrella sedge, Cyperus difformis); experiment: Test B flooded paddy test, sedge, umbrella; settings: 250 g ai/ha, Flood; visually evaluated after 10 to 14 days
Outline: as §2

[6] = test system: foxtail, giant (giant foxtail, Setaria faberi); experiment: Test A postemergence, foxtail, giant; settings: 10 days
Outline: as §1

kochia (Bassia scoparia) [7] = experiment: Test A preemergence, kochia; settings: 0 to 100 scale, 10 days
Outline: as §1

kochia (Bassia scoparia) [8] = experiment: Test A postemergence, kochia; settings: 10 days
Outline: as §1

[9] = test system: ryegrass, Italian (Italian ryegrass, Lolium multiflorum); experiment: Test A preemergence, ryegrass, Italian; settings: 0 to 100 scale, 10 days
Outline: as §1

[10] = test system: redroot pigweed (Amaranthus retroflexus); experiment: Test A postemergence, redroot pigweed; settings: 10 days
Outline: as §1

[11] = test system: barnyardgrass (Echinochloa crus-galli); experiment: Test A preemergence, barnyardgrass; settings: 10 days
Outline: as §1

[12] = test system: wheat (Triticum aestivum); experiment: Test A postemergence, wheat; settings: 10 days
Outline: as §1

[13] = test system: ragweed (common ragweed, Ambrosia artemisiifolia); experiment: Test A postemergence, ragweed; settings: 10 days
Outline: as §1

[14] = test system: ducksalad (Heteranthera limosa); experiment: Test B flooded paddy test, ducksalad; settings: 250 g ai/ha, Flood; visually evaluated after 10 to 14 days
Outline: as §2

[15] = test system: ragweed (common ragweed, Ambrosia artemisiifolia); experiment: Test A preemergence, ragweed; settings: 0 to 100 scale, 10 days
Outline: as §1

[16] = test system: blackgrass (Alopecurus myosuroides); experiment: Test A postemergence, blackgrass; settings: 10 days
Outline: as §1

[17] = test system: barnyardgrass (Echinochloa crus-galli); experiment: Test B flooded paddy test, barnyardgrass; settings: 250 g ai/ha, Flood; visually evaluated after 10 to 14 days
Outline: as §2

[18] = test system: redroot pigweed (Amaranthus retroflexus); experiment: Test A preemergence, redroot pigweed; settings: 0 to 100 scale, 10 days
Outline: as §1

[19] = 31 g ai/ha, postemergence, 0 to 100 scale (0 no effect, 100 complete control)
[20] = Postemergence, 125 g ai/ha, 0 to 100 scale
[21] = 125 g ai/ha, 0 to 100 scale (0 no effect, 100 complete control)

Structure (SMILES) | Plant response rating, Barnyardgrass [1, 19] | Plant response rating, Barnyardgrass [1, 20] | Plant response rating, Rice (0 to 100 scale where 0 is no effect and 100 is complete control) (rice (Oryza sativa)) | Plant response rating, Galium [2, 19] | Plant response rating, Galium [2, 20] | Plant response rating, Ryegrass, Italian [3, 19] | Plant response rating, Ryegrass, Italian [3, 20] | Plant response rating, Foxtail, Giant ([4]; 31 g ai/ha) | Plant response rating, Foxtail, Giant ([4]; 125 g ai/ha) | Plant response rating, Corn (corn (Zea mays); [19]) | Plant response rating, Corn (corn (Zea mays); [20]) | Plant response rating, Sedge, Umbrella (0 to 100 scale where 0 is no effect and 100 is complete control) [5] | Plant response rating, Foxtail, Giant [6, 19] | Plant response rating, Foxtail, Giant [6, 20] | Plant response rating, Kochia (kochia (Bassia scoparia) [7]; 31 g ai/ha) | Plant response rating, Kochia (kochia (Bassia scoparia) [7]; 125 g ai/ha) | Plant response rating, Kochia (kochia (Bassia scoparia) [8]; [19]) | Plant response rating, Kochia (kochia (Bassia scoparia) [8]; [20]) | Plant response rating, Ryegrass, Italian ([9]; 31 g ai/ha) | Plant response rating, Ryegrass, Italian ([9]; 125 g ai/ha) | further results
COc1ccc2cc3ccc(F)cc3c(-c3c(OCOC(C)=O)c(C)nn(C)c3=O)c2c1 [Compound 26] | 20 | 40 | 10 | 80 | 100 | 20 | 90 | 20 | 90 | 0 | 10 | 85 | 20 | 70 | 20 | 90 | 40 | 80 | 10 | 90 | Plant response rating, Pigweed, Redroot [10, 19]: 100; Plant response rating, Pigweed, Redroot [10, 20]: 100; Plant response rating, Barnyardgrass ([11]; 31 g ai/ha, 0 to 100 scale): 10; Plant response rating, Barnyardgrass [11, 21]: 70; Plant response rating, Wheat [12, 19]: 20; Plant response rating, Wheat [12, 20]: 60; Plant response rating, Ragweed [13, 19]: 90; Plant response rating, Ragweed [13, 20]: 100; Plant response rating, Ducksalad (0 to 100 scale where 0 is no effect and 100 is complete control) [14]: 80; Plant response rating, Ragweed ([15]; 31 g ai/ha): 30; Plant response rating, Ragweed ([15]; 125 g ai/ha): 30; Plant response rating, Blackgrass [16, 19]: 0; Plant response rating, Blackgrass [16, 20]: 10; Plant response rating, Barnyardgrass (0 to 100 scale where 0 is no effect and 100 is complete control) [17]: 60; Plant response rating, Pigweed, Redroot ([18]; 31 g ai/ha): 100; Plant response rating, Pigweed, Redroot ([18]; 125 g ai/ha): 100
CC(=O)OCOc1c(C)nn(C)c(=O)c1-c1c2cc(F)ccc2cc2c(C)cc(C)cc12 [Compound 27] | 20 | 30 | 15 | 70 | 100 | 100 | 100 | 0 | 70 | 0 | 10 | 65 | 0 | 30 | 0 | 80 | 10 | 70 | 10 | 90 | Plant response rating, Pigweed, Redroot [10, 19]: 100; Plant response rating, Pigweed, Redroot [10, 20]: 100; Plant response rating, Barnyardgrass ([11]; 31 g ai/ha, 0 to 100 scale): 0; Plant response rating, Barnyardgrass [11, 21]: 30; Plant response rating, Wheat [12, 19]: 0; Plant response rating, Wheat [12, 20]: 0; Plant response rating, Ragweed [13, 19]: 90; Plant response rating, Ragweed [13, 20]: 90; Plant response rating, Ducksalad (0 to 100 scale where 0 is no effect and 100 is complete control) [14]: 65; Plant response rating, Ragweed ([15]; 31 g ai/ha): 50; Plant response rating, Ragweed ([15]; 125 g ai/ha): 100; Plant response rating, Blackgrass [16, 19]: 0; Plant response rating, Blackgrass [16, 20]: 0; Plant response rating, Barnyardgrass (0 to 100 scale where 0 is no effect and 100 is complete control) [17]: 0; Plant response rating, Pigweed, Redroot ([18]; 31 g ai/ha): 100; Plant response rating, Pigweed, Redroot ([18]; 125 g ai/ha): 100
CC(=O)OCOc1c(C)nn(C)c(=O)c1-c1c2cc(C)ccc2cc2c(F)cc(C)cc12 [Compound 29] | 20 | 90 | 0 | 90 | 100 | 40 | 60 | 0 | 20 | 0 | 0 | 98 | 20 | 20 | 20 | 100 | 60 | 100 | 0 | 60 | Plant response rating, Pigweed, Redroot [10, 19]: 100; Plant response rating, Pigweed, Redroot [10, 20]: 100; Plant response rating, Barnyardgrass ([11]; 31 g ai/ha, 0 to 100 scale): 0; Plant response rating, Barnyardgrass [11, 21]: 70; Plant response rating, Wheat [12, 19]: 0; Plant response rating, Wheat [12, 20]: 0; Plant response rating, Ragweed [13, 19]: 100; Plant response rating, Ragweed [13, 20]: 100; Plant response rating, Ducksalad (0 to 100 scale where 0 is no effect and 100 is complete control) [14]: 95; Plant response rating, Ragweed ([15]; 31 g ai/ha): 90; Plant response rating, Ragweed ([15]; 125 g ai/ha): 90; Plant response rating, Blackgrass [16, 19]: 0; Plant response rating, Blackgrass [16, 20]: 20; Plant response rating, Barnyardgrass (0 to 100 scale where 0 is no effect and 100 is complete control) [17]: 55; Plant response rating, Pigweed, Redroot ([18]; 31 g ai/ha): 100; Plant response rating, Pigweed, Redroot ([18]; 125 g ai/ha): 100
